According to patent publication US20020182749A1, “Sample evaporative control” (ACLARA BioSciences, Inc., priority 1999, published 2002):
Read-outs that look alike come from different tables or passages of the source.

Assays:
alkaline phosphatase [1] = experiment: competitive inhibition assay, alkaline phosphatase with AutoPhos substrate; type: biochemical
Protocol: The next study evaluated the system using a competitive inhibition assay, 4-Nitrophenyl phosphate (PNPP) (Sigma Chemical Co., St. Louis, Mo.) was used as a non-fluorescent substrate for alkaline phosphatase (20 femtomoles) competing with the AutoPhos substrate. The channel was rinsed with AutoPhos buffer and filled with […] AutoPhos substrate. Into the sample port was introduced 100 nl of PNPP at concentrations varying from 0 to 10 mM and the fluorescent signal was determined at different reaction time points.
The channel was rinsed with AutoPhos buffer and then filled with about 10 μl of 1 mM AutoPhos substrate. 50 nl of alkaline phosphatase was then dispensed into the sample port. The amount of enzyme dispensed into the sample port increased from 31.25 attomole to 62.5 femtomoles by a factor of 2. Enzyme solutions of different concentrations were prepared in individual wells of a 96-well microtitre plate. Fluorescence was excited at 480 nm±20 nm and emission collected at 520±20 nm. The signals were recorded at different time points, 0, 5, 10, 15, up to 35 minutes.
The next assay was a competitive inhibition assay using the following protocol: 4-Nitrophenyl phosphate (PNPP) was used as a non-fluorescent substrate for competing for alkaline phosphatase with AutoPhos substrate. After rinsing the channels with AutoPhos buffer, the channel was filled with 1 mM AutoPhos substrate. 100 nl of PNPP was dispensed at different concentrations ranging form 0 to 60 mM. The fluorescent signal was measured at different reaction time points. The fluorescent signal as a function of different inhibitor concentrations is tabulated as following.

alkaline phosphatase [2] = experiment: alkaline phosphatase inhibition study on capillary electrophoresis card, FDP substrate; type: biochemical; conditions: 1.3 mU/ml alkaline phosphatase, 3.33 μM FDP, increasing PNPP
Protocol: The experimental procedure was as follows: the assay well is covered by tape. 5 μl of buffer was added to the reservoirs. 500 nl of the fluorescein or assay mixture was pipetted into the assay well. For the alkaline phosphatase assay, enzyme and substrate with or without inhibitor was mixed in a tube and then 500 nl of the assay mixture was pipetted into the assay well. The detection was performed at 7 mm distance from the injector. The particular conditions for each determination are set forth with the figure.
FIG. 17 illustrates the alkaline phosphatase activity for the different incubation times. As shown in the electropherograms, two product peaks (the first peak is fluorescein mono phosphate and the 2nd peak is fluorescein) are well separated from each other. Additionally, the use of longer incubation time results in more conversion of FDP (fluorescein di-phosphate as a substrate) to the FMP (fluorescein mono-phosphate) and finally to fluorescein. FIG. 18 depicts a linear calibration curve for the alkaline phosphatase using the card. For the inhibition study, PNPP which is a non-fluorescent substrate for the alkaline phosphatase and competes with FDP which is a fluorescent substrate for the enzyme, is added to the assay mixture at a number of different concentrations.

[3] = molecular target: T1, rhodamine-labeled streptavidin (Streptomyces avidinii, UniProt P22629); experiment: inhibition of antigen-receptor binding, fluorescein-biotin / rhodamine-labeled streptavidin, read at 520 nm
T1 construct: purchased Molecular Probe
T1 sequence (P22629 25-183): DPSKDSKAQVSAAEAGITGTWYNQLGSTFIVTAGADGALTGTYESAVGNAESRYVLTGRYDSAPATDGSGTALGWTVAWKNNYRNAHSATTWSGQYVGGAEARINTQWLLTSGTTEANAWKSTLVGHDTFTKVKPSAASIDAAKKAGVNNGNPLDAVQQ
Protocol: In the next study, the channel was filled with varying concentrations of biotin in the range of 0 to 5 μM and 100 nl of rhodamine-labeled streptavidin (625 nM) followed by 100 nl of 1.0 μM fluorescein-biotin added to the sample port. After incubating for 60 min., the signal was detected at 520±20 nm. The results are reported as fraction inhibition. The following tables provide the results.
Using the above reagents and protocol, an inhibition assay was performed. The protocol was to fill the channel with 0, 30, 60, 180, 240, 500, 600, 1000, 5000 […] of biotin, respectively, followed by dispensing 100 nl of rhodamine labeled receptor into the sample port. After dispensing 100 nl of 1.0 μM fluorescein labeled antigen into the sample port, the reaction mixture was incubated for 60 minutes. The fluorescence was recorded by exciting at 480±20 nm and reading the emission at 520 nm±20 nm As the inhibitor concentration increased, the fluorescence intensity increased, indicating an increased inhibition. The increase in the fluorescent signal as a function of inhibitor concentration was converted to the percentage of inhibition.

rhodamine-streptavidin = rhodamine-streptavidin (Streptomyces avidinii, UniProt P22629); experiment: FRET binding inhibition, fluorescein-biotin / rhodamine-streptavidin, read at 600 nm; conditions: fluorescein-biotin 50 μM, rhodamine-streptavidin 25 μM, varying biotin
Sequence of rhodamine-streptavidin (P22629 25-183): as above
Protocol: In another series of studies binding assays were performed using fluorescence resonance energy transfer. The procedure employed is as follows. The channel was rinsed and filled with 25 μl of rhodamine labeled streptavidin and 100 nl of fluorescein labeled biotin dispensed in the sample port. The concentration of the antigen varied from 0 to 100 μM by 2-fold dilutions. The signal detection system was as described, except that emission was detected at 600±20 nm. The energy transfer increased corresponding to the increase in antigen. The study was repeated varying the amount of labeled streptavidin while keeping the biotin-fluorescein at 25 μM. The background FRET signal contributed by rhodamine-streptavidin alone was substantially negligible, when the concentration of rhodamine-streptavidin was greater than about 2 μM. The following tables provide the results for the two studies.
In the next study, the effect of inhibitor on the observed signal was investigated. Fluorescein-biotin was maintained at 50 μM and rhodamine-streptavidin at 25 μM. the signal was read at 600±20 nm at varying concentrations of biotin as a binding inhibitor, with 100 nl of the binding inhibitor being added to the sample port.

CYP1A2 = CYP1A2 (Homo sapiens, UniProt P05177); experiment: in vitro
Sequence of CYP1A2 (P05177 whole entry): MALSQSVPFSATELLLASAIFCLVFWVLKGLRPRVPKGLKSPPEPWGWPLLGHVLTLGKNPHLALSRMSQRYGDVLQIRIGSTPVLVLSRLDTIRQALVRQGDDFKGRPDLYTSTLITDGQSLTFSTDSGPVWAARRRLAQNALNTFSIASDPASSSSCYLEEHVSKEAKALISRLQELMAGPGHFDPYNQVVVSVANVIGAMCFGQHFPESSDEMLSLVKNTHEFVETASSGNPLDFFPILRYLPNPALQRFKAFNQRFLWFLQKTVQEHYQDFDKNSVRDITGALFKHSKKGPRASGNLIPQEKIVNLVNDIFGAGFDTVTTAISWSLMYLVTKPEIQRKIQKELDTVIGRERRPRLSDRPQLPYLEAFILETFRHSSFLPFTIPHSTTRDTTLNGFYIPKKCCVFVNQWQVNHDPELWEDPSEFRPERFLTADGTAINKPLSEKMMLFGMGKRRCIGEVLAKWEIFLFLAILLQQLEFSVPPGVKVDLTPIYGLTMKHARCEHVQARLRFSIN
Protocol: B: Inhibition in CYP450 1A2 Assay:
Make 500 M CEC substrate for 1A2.
For each of the dilutions of furafylline make Buffer Mix:
Add 5 μl of the buffer mix to both of the side wells of the channels. Because the solution contains Pluronic F68, the solution in the middle assay well rises to the top. Dilute CYP1A2 enzyme 2:1 with water.
Add 300 nl of diluted enzyme to assay (middle) well.
Incubate at 37° C. for 35 minutes.
Take RFU readings using Molecular Devices F-max plate reader. F-max settings: Filter pair 390/460; Int.20 ms; speed 10.

alkaline phosphatase [4] = experiment: alkaline phosphatase inhibition in device ports, fluorescein diphosphate substrate; type: biochemical; conditions: 30 nl 0.1 nM enzyme
Excerpt: The upper plate is about 1 mm in height and the lower plate is also about 1 mm in height. The port for introducing solutions is 1 mm in diameter and about 900 to 950 μm in height, while the channel substantially extends the remaining length of the upper sheet. The channel was varied from about 0.2 mm to 3.0 mm in width, where the interface between the port or well and the channel varied, with either the port or the channel determining the area of interface. The reservoirs have a diameter of about 2 mm. The channels were treated with 2N sodium hydroxide for 5 mins. using a vacuum pump to ensure that the basic solution extends through the channels and reservoirs. The ports or wells appear to be unaffected by this treatment, so that the channels and reservoirs have a hydrophilic surface, while the ports have a hydrophobic surface. One or more of the ports are used in each of the studies. Common to each of the experiments is to fill the device with 10 μl of 25 μM fluorescein diphosphate in 50 mM Tris buffer (pH 10.0) added to each of the inlet reservoirs, after prewetting the device.
In the next study, the effect of enzyme inhibitor was investigated. The channel was 1 mm in width. […] The fluorescence development is monitored with a CCD camera. Fluorescence is substantially confined to the ports and the fluorescent signal is related to the concentration of inhibitor introduced into the port.

[5] = read-out: Fraction of Inhibition

O=[N+]([O-])c1ccc(OP(=O)(O)O)cc1 [PNPP, 4-Nitrophenyl phosphate]
Fluorescent Signal (alkaline phosphatase [1]; Inhibitor conc. 0.001 mM): 4.5 ×103 | Fluorescent Signal (alkaline phosphatase [1]; Inhibitor conc. 0.0025 mM): 4.0 ×103 | Fluorescent Signal (alkaline phosphatase [1]; Inhibitor conc. 0.005 mM): 4.0 ×103 | Fluorescent Signal (alkaline phosphatase [1]; Inhibitor conc. 0.01 mM): 3.5 ×103 | Fluorescent Signal (alkaline phosphatase [1]; Inhibitor conc. 0.02 mM): 2.6 ×103 | Fluorescent Signal (alkaline phosphatase [1]; Inhibitor conc. 0.3125 mM): 2.0 ×103 | Fluorescent Signal (alkaline phosphatase [1]; Inhibitor conc. 0.625 mM): 1.6 ×103 | Fluorescent Signal (alkaline phosphatase [1]; Inhibitor conc. 1.25 mM): 1.6 ×103 | Fluorescent Signal (alkaline phosphatase [1]; Inhibitor conc. 5 mM): 1.6 ×103 | Fluorescent Signal (alkaline phosphatase [1]; Inhibitor conc. 10 mM): 1.5 ×103 | Fluorescence Signal (alkaline phosphatase [1]; [Inhibitor] 0.001 mM): 4527 RFU | Fluorescence Signal (alkaline phosphatase [1]; [Inhibitor] 0.0025 mM): 4000 RFU | Fluorescence Signal (alkaline phosphatase [1]; [Inhibitor] 0.005 mM): 4000 RFU | Fluorescence Signal (alkaline phosphatase [1]; [Inhibitor] 0.01 mM): 3500 RFU | Fluorescence Signal (alkaline phosphatase [1]; [Inhibitor] 0.02 mM): 2600 RFU | Fluorescence Signal (alkaline phosphatase [1]; [Inhibitor] 0.3125 mM): 2000 RFU | Fluorescence Signal (alkaline phosphatase [1]; [Inhibitor] 0.625 mM): 1600 RFU | Fluorescence Signal (alkaline phosphatase [1]; [Inhibitor] 1.25 mM): 1600 RFU | Fluorescence Signal (alkaline phosphatase [1]; [Inhibitor] 5 mM): 1600 RFU | Fluorescence Signal (alkaline phosphatase [1]; [Inhibitor] 10 mM): 1500 RFU | Fluorescence Signal (alkaline phosphatase [1]; [Inhibitor] 60 mM): 750 RFU | effect on FDP alkaline phosphatase activity (alkaline phosphatase [2]): reduction of FDP alkaline phosphates activity

O=C(O)CCCC[C@@H]1SC[C@@H]2NC(=O)N[C@@H]21 [biotin, D(+)-Biotin]
inhibition at 0.03 µM ([3]; read-out: % of Inhibition): 3.85% | inhibition at 0.06 µM ([3]; read-out: % of Inhibition): 3.1% | inhibition at 0.18 µM ([3]; read-out: % of Inhibition): 5% | inhibition at 0.24 µM ([3]; read-out: % of Inhibition): 5.14% | inhibition at 0.5 µM ([3]; read-out: % of Inhibition): 22.4% | inhibition at 0.6 µM ([3]; read-out: % of Inhibition): 36.6% | inhibition at 1 µM ([3]; read-out: % of Inhibition): 95% | inhibition at 5 µM ([3]; read-out: % of Inhibition): 100% | inhibition at 0.03 µM [3, 5]: 3.85% | inhibition at 0.06 µM [3, 5]: 3.1% | inhibition at 0.18 µM [3, 5]: 5% | inhibition at 0.24 µM [3, 5]: 5.14% | inhibition at 0.5 µM [3, 5]: 22.4% | inhibition at 0.6 µM [3, 5]: 36.6% | inhibition at 1 µM [3, 5]: 95% | inhibition at 5 µM [3, 5]: 100% | energy transfer (FRET signal at 600 nm) (rhodamine-streptavidin): decreased with increase of binding inhibitor

Cc1nc2c([nH]1)c(=O)n(C)c(=O)n2Cc1ccco1 [furafylline]
inhibition at 35 min, 0.133 µM (CYP1A2): 2% | inhibition at 35 min, 0.665 µM (CYP1A2): 31% | inhibition at 35 min, 1.33 µM (CYP1A2): 64% | inhibition at 35 min, 6.65 µM (CYP1A2): 72% | inhibition at 35 min, 13.3 µM (CYP1A2): 75% | inhibition at 35 min, 66.5 µM (CYP1A2): 77% | inhibition at 35 min, 133 µM (CYP1A2): 78%

Cc1ncc(COP(=O)(O)O)c(C=O)c1O [pyridoxal phosphate]
fluorescence development in port (alkaline phosphatase [4]; 30 nl of 25 μM inhibitor): only moderately inhibited | fluorescence development in port (alkaline phosphatase [4]; 30 nl of 250 μM inhibitor, at 30 mins): still very faint
